Laboratory results: US20110217265A1, “Screening for Inhibitors of HCV Amphipathic Helix (AH) Function” (priority 2008, published 2011)
Entries after “also recorded” stand apart in the source; their conditions may differ.

Assays:
[1] = test system: subgenomic genotype 1b replicon RNA (Bart79ILuc); assay: Transient genotype 1b subgenomic replicon (Bart79I-luc) luciferase replication assay in Huh7.5 cells; format: cell-based, Hepatitis C Virus genotype 1b; settings: luciferase at 72 hr of treatment
Excerpt: Plasmids. Bart79I, a high-efficiency subgenomic replicon of HCV (28), harbors the neomycin resistance gene (neo) and the HCV nonstructural proteins. The Bart-Luciferase plasmid, Bart79I-luc, was cloned from the Bart791 parent (29) and the pGL3-Basic parent (Promega). In brief, a NotI site was introduced after the 15th amino acid of Core in Bart791 using PCR mutagenesis. The plasmid pcDNA3.1-NS4B, which encodes the Con1 NS4B sequence and was used to study the protein stability of the wild type and mutant NS4Bs, was described previously. […]
Transient Replication Assays. […] Firefly luciferase activities were measured at 8, 48, 96, and 144 hr post electroporation by using a firefly luciferase kit from Promega (Madison, Wis.).
Antiviral Assays of Compounds. […] Plates were then scanned and fluorescence was detected by using a FLEXstation II 384 (Molecular Devices). […] Viral RNA replication was determined using Renilla (FL-J6/JFH-5′C19Rluc2AUbi) or firefly (Bart791-luc) luciferase assays, according to the manufacturer's (Promega) directions. The same samples subjected to the viability assay described below were analyzed in this assay. […] Luminescence was measured over 10 seconds with a 2-second delay using a Berthold LB 96 V luminometer. […]

[2] = test system: Huh7.5 cells; assay: Alamar Blue cell viability assay; format: cell-based, human; settings: in parallel with replication assays, 72 hr

CC(C)CN(C)c1nc(N)c(C(=O)NC(=N)N)nc1Cl [C4, 3-amino-N-carbamimidoyl-6-chloro-5-(isobutyl(methyl)amino)pyrazine-2-carboxamide]
Inhibition of HCV genotype 1b genome replication [1]: inhibits HCV replication; also recorded: dose-dependent inhibition | Cellular toxicity (Alamar Blue viability) [2]: No significant cellular toxicity
